In US20230123334A1, “AMINO LIPID COMPOUND, PREPARATION METHOD THEREFOR, AND APPLICATION THEREOF” (SHENZHEN SHENXIN BIOTECHNOLOGY CO., LTD., priority 2020, published 2023):

Columns and labels:
HEK293 cells [1] = experiment: Preliminary screening as mRNA vectors, EGFP mRNA transfection of HEK293 cells; type: cell-based; conditions: HEK293 cells, 96-well plates, EGFP mRNA 50 ng per well; percentage of GFP fluorescent cells relative to total number of cells (Hoechst)
Summary of the method: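 Screening format: EGFP mRNA transfection (50 ng/well) into HEK293 in 10% FBS-supplemented DMEM. Percent green fluorescent cells, normalised to Hoechst nuclear count, gave the value; Lipofectamine2000 was the reference transfectant.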

HEK293 cells [2] = experiment: Preliminary screening as DNA vectors, GFP transfection of HEK293 cells; type: cell-based; conditions: HEK293 cells; lipid/DOPE liposome with 75 ng plasmid DNA (psin-EGFP-IRES-Puro); number of cells expressing GFP divided by total number of nuclei (Hoechst)
Summary of the method: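 First, amino lipid and DOPE were vortexed in sodium acetate buffer (pH 5.6) to form liposomes. Next, these were held with 75 ng EGFP plasmid at room temperature for 30 min. Finally, HEK293 cells were added, cultured at 37° C., Hoechst-stained, and GFP+/total nuclei scored by imaging.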

| Compound | Absolute mRNA transfection efficiency in HEK293 cells (HEK293 cells [1]) [%] | Absolute DNA transfection efficiency in HEK293 cells (HEK293 cells [2]) [%] |
| --- | --- | --- |
| CCCCCCCCCCCCCCCCNc1nc(NCCCCCCCCCCCCC)nc(NCCCN2CCN(C)CC2)n1 [Compound N13N16D9] | 1.4 | 0.0 |
| CCCCCCCCCCCCCCCCCCSc1nc(NCCN2CCOCC2)nc(SCCCCCCCCCC)n1 [Compound S10S18D2] | 0.2 | 1.6 |
| CCCCCCCCCCCCCCCSc1nc(NCCCN(C)C)nc(SCCCCCCCCCC)n1 [Compound S10S15D6] | 24.6 | 32.8 |
| CCCCCCCCCCCCCCCCSc1nc(NCCN(CC)CC)nc(SCCCCCCCC)n1 [Compound S8S16D7] | 0.5 | 11.8 |
| CCCCCCCCCCSc1nc(NCCCN(C)C)nc(SCCCCCCCCC)n1 [Compound S9S10D6] | 74.6 | 21.2 |
| CCCCCCCCNc1nc(NCCCCCCC)nc(NCCN2CCN(C)CC2)n1 [Compound N7N8D5] | 0.0 | 0.0 |
| CCCCCCCCCCCCCCCCCCSc1nc(NCCN2CCCC2)nc(SCCCCCCCCCCCCCCC)n1 [Compound S15S18D3] | 1.9 | 2.6 |
| CCCCCCCCCCCCCCCNc1nc(NCCCCCC)nc(NCCN2CCCCC2)n1 [Compound N6N15D4] | 0.0 | 0.1 |
| CCCCCCCCCCCCCNc1nc(NCCCCCCCC)nc(NCCN(CC)CC)n1 [Compound N8N13D7] | 0.0 | 0.0 |
| CCCCCCCCCCCCCCCCSc1nc(NCCN(C)C)nc(SCCCCCCCCCCCCCCCC)n1 [Compound S16S16D1] | 0.4 | 0.6 |
| CCCCCCCCCCCCCCCCCCNc1nc(NCCCCCCCCCCCCCCCCCC)nc(NCCN2CCCC2)n1 [Compound N18N18D3] | 40.0 | 2.0 |
| CCCCCCCCCCCCCCCCSc1nc(NCCN2CCOCC2)nc(SCCCCCCCCCCCC)n1 [Compound S12S16D2] | 0.0 | 0.0 |
| CCCCCCCCCCCNc1nc(NCCCCCCCCCCC)nc(NCCN2CCCCC2)n1 [Compound N11N11D4] | 4.1 | 0.0 |
| CCCCCCCCCCCCCCCCSc1nc(NCCN2CCN(C)CC2)nc(SCCCCCCCCCCCC)n1 [Compound S12S16D5] | 0.1 | 0.1 |
| CCCCCCCCCCCCNc1nc(NCCN2CCCC2)nc(N(CCCCCCCCCCCC)CCCCCCCCCCCC)n1 [N12^2N12D3] | 5.8 | 3.2 |
| CCCCCCCCCCCCN(CCCCCCCCCCCC)c1nc(NCC2CCN(C)CC2)nc(N(CCCCCCCCCCCC)CCCCCCCCCCCC)n1 [2N12^2N12D10] | 3.3 | 1.8 |
| CCCCCCCCCCCCCCSc1nc(NCCN(CC)CC)nc(SCCCCCCCCCCCC)n1 [Compound S12S14D7] | 0.9 | 3.3 |
| CCCCCCCCCCCCCCCNc1nc(NCCCCCCCCCCCCC)nc(NCCCN2CCOCC2)n1 [Compound N13N15D8] | 0.0 | 0.0 |
| CCCCCCCCCCCCCCCCCCSc1nc(NCCCN(C)C)nc(SCCCCCCCCCC)n1 [Compound S10S18D6] | 19.9 | 22.4 |
| CCCCCCCCCCCCN(CCCCCCCCCCCC)c1nc(NCCCCCCC)nc(NCCN(CC)CC)n1 [N7^2N12D7] | 1.9 | 0.6 |
| CCCCCCCCCCCCCCCSc1nc(NCCN2CCCCC2)nc(SCCCCCCCCCC)n1 [Compound S10S15D4] | 0.7 | 7.5 |
| CCCCCCCCCCCCCCSc1nc(NCCN2CCCC2)nc(SCCCCCCCCCC)n1 [Compound S10S14D3] | 0.6 | 7.9 |
| CCCCCCCCCCCCCCCCNc1nc(NCCCCCCC)nc(NCCCN(C)C)n1 [Compound N7N16D6] | 5.0 | 0.6 |
| CCCCCCCCCCCCN(CCCCCCCCCCCC)c1nc(NCCCCCC)nc(NCCCN2CCOCC2)n1 [N6^2N12D8] | 0.0 | 0.0 |

| Compound | Absolute mRNA transfection efficiency in HEK293 cells (HEK293 cells [1]) [%] | Absolute DNA transfection efficiency in HEK293 cells (HEK293 cells [2]) [%] |
| --- | --- | --- |
| CCCCCCCCCCCCCCCCCCNc1nc(NCCCN2CCOCC2)nc(N(CCCCCCCCCCCC)CCCCCCCCCCCC)n1 [N18^2N12D8] | 2.3 | 0.4 |
| CCCCCCCCCCCCCCCSc1nc(NCCCN(C)C)nc(SCCCCCCCC)n1 [Compound S8S15D6] | 45.0 | 24.5 |
| CCCCCCCCCCCCCCCCCCSc1nc(NCC2CCN(C)CC2)nc(SCCCCCCCCCCC)n1 [Compound S11S18D10] | 92.0 | 20.9 |
| CCCCCCCCCCCNc1nc(NCCCCCCC)nc(NCCN(CC)CC)n1 [Compound N7N11D7] | 0.0 | 0.0 |
| CCCCCCCCCCCCCCSc1nc(NCCN2CCN(C)CC2)nc(SCCCCCCCC)n1 [Compound S8S14D5] | 52.7 | 29.9 |
| CCCCCCCCCCCCCCCCCCNc1nc(NCCCCCCCCCCCCCCCCCC)nc(NCCCN2CCOCC2)n1 [Compound N18N18D8] | 0.0 | 0.1 |
| CCCCCCCCCCCCN(CCCCCCCCCCCC)c1nc(NCCCCCCCCC)nc(NCC2CCN(C)CC2)n1 [N9^2N12D10] | 2.9 | 0.0 |
| CCCCCCCCCCCCCCCCCCNc1nc(NCCN2CCOCC2)nc(N(CCCCCCCCCCCC)CCCCCCCCCCCC)n1 [N18^2N12D2] | 0.1 | 0.0 |
| CCCCCCCCCCCCCCCCNc1nc(NCCCCCCCC)nc(NCCCN2CCN(C)CC2)n1 [Compound N8N16D9] | 0.5 | 1.0 |
| CCCCCCCCCCCCCCSc1nc(NCCCN(C)C)nc(SCCCCCCCCCCCCCC)n1 [Compound S14S14D6] | 0.2 | 0.2 |
| CCCCCCCCCCCCCCCCCCSc1nc(NCCCN2CCOCC2)nc(SCCCCCCCC)n1 [Compound S8S18D8] | 4.2 | 18.7 |
| CCCCCCCCCCCCCCCSc1nc(NCCCN2CCOCC2)nc(SCCCCCCCCCCCC)n1 [Compound S12S15D8] | 3.2 | 3.1 |
| CCCCCCCCCCCCCCCCCCNc1nc(NCCCCCCCCCCCCCCCC)nc(NCCN(CC)CC)n1 [Compound N16N18D7] | 0.0 | 0.0 |
| CCCCCCCCCCCNc1nc(NCCCCCCCC)nc(NCCCN2CCN(C)CC2)n1 [Compound N8N11D9] | 0.0 | 0.0 |
| CCCCCCCCCCCCCCCCCCSc1nc(NCCN2CCN(C)CC2)nc(SCCCCCCCCCCCC)n1 [Compound S12S18D5] | 0.0 | 0.7 |
| CCCCCCCCCCCCCCCCCCSc1nc(NCCN2CCN(C)CC2)nc(SCCCCCCCCCCCCCC)n1 [Compound S14S18D5] | 1.0 | 0.2 |
| CCCCCCCCCCCCSc1nc(NCCCN2CCN(C)CC2)nc(SCCCCCCCCCC)n1 [Compound S10S12D9] | 53.7 | 28.1 |
| CCCCCCNc1nc(NCCCCCC)nc(NCCN2CCCCC2)n1 [Compound N6N6D4] | 0.1 | 0.0 |
| CCCCCCCCCCCCCCCCCCSc1nc(NCCCN2CCN(C)CC2)nc(SCCCCCCCC)n1 [Compound S8S18D9] | 28.1 | 17.7 |
| CCCCCCCCCCCCCCCCCCNc1nc(NCCCCCCCCCCCCCCCCCC)nc(NCCN(CC)CC)n1 [Compound N18N18D7] | 0.0 | 0.3 |
| CCCCCCCCNc1nc(NCCCCCCC)nc(NCCCN(C)C)n1 [Compound N7N8D6] | 0.0 | 0.0 |
| CCCCCCCCCCCCCCCCNc1nc(NCCCCCCCCCCC)nc(NCCN2CCCC2)n1 [Compound N11N16D3] | 3.6 | 1.2 |
| CCCCCCCCCSc1nc(NCCN2CCCC2)nc(SCCCCCCCCC)n1 [Compound S9S9D3] | 4.5 | 11.9 |
